The structures appear in SMILES notation. Active and inactive are the calls of the source. Where only a bound is given, the exact number is not on record here.

In assay [1] the target is T1, Replicative DNA helicase DnaB (Mycobacterium tuberculosis, UniProt P9WMR3).
T1 sequence (P9WMR3 whole entry): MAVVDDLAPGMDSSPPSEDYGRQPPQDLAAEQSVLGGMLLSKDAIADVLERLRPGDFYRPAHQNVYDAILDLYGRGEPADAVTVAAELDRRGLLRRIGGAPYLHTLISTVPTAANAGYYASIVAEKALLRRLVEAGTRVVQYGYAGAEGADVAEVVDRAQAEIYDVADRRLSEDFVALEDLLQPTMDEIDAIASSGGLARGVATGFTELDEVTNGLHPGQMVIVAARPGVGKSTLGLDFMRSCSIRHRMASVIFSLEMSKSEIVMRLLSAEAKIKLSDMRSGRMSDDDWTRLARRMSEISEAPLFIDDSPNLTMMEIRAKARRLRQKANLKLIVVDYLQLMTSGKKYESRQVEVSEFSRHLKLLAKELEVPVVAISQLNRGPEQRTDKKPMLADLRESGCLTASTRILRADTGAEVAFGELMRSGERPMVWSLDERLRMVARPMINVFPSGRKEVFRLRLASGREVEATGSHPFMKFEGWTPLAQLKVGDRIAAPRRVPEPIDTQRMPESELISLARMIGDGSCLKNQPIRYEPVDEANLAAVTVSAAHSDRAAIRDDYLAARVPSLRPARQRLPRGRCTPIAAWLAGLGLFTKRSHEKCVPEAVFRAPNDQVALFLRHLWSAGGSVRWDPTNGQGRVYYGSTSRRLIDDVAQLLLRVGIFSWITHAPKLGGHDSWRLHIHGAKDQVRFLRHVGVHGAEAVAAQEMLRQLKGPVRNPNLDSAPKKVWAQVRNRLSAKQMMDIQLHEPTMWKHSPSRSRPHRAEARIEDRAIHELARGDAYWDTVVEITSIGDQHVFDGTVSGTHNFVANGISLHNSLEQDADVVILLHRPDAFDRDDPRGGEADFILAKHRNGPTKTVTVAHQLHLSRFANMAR
The experiment in a line: DnaB intein splicing inhibitors, dose response, biochemical, cell-free fluorescence (AID 449749). It is filed as functional.

For assay [2], the target named is T2, Protein RecA (Mycobacterium tuberculosis, UniProt P9WHJ3).
T2 sequence (P9WHJ3 whole entry): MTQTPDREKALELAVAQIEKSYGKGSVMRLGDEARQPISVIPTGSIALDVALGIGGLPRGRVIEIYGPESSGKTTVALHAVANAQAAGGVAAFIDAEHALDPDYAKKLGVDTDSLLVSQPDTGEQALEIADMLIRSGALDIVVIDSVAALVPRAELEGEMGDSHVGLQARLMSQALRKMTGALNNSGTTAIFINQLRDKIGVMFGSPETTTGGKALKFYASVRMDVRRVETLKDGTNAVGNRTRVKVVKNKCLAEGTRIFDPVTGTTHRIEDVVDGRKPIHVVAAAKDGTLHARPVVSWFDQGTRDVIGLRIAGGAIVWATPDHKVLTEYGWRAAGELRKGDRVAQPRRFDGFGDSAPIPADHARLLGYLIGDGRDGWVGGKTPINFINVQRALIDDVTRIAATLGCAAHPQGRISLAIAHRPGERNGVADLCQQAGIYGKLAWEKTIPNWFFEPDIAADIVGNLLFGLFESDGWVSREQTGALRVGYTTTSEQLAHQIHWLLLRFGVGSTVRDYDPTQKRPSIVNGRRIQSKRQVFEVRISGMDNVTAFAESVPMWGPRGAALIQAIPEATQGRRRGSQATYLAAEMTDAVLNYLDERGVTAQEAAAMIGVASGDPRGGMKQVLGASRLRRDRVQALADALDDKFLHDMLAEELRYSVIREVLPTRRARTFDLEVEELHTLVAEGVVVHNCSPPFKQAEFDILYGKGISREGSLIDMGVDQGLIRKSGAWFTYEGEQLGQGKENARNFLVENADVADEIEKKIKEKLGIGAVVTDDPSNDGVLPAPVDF
The assay can be described thus: Fluorescence Cell-Free Homogeneous Dose Retest to Identify Inhibitors of RecA-Intein Splicing Activity. [Related pubchem assays (depositor defined):AID2097, AID2223, AID489010, AID492950]. Type of assay: functional.

Assay [3] addresses T3, Rac GTPase-activating protein 1 (Homo sapiens, UniProt Q9H0H5).
T3 sequence (Q9H0H5 whole entry): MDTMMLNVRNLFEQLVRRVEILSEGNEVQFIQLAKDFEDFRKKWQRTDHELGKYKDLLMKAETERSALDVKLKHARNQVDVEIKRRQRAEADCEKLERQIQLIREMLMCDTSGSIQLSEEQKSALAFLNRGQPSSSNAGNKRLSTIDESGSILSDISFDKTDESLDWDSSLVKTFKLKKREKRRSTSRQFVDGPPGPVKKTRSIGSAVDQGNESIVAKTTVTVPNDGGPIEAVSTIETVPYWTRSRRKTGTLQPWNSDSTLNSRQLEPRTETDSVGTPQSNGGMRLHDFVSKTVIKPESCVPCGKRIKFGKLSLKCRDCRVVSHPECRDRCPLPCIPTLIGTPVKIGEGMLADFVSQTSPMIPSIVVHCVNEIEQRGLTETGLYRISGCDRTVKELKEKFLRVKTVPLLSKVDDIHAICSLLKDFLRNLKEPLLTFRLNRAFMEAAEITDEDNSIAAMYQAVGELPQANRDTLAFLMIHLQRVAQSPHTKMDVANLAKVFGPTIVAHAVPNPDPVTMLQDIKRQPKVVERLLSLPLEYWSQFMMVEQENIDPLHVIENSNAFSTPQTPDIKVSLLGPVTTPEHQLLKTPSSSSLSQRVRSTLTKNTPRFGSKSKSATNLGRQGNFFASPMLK
The assay can be described thus: MgcRacGAP GTPase-activating activity inhibitors, confirmation, biochemical, ADP Hunter fluorescence, primary and confirmatory (AID 624330). Type of assay: functional.

The target in assay [4] is Cytochrome P450 3A4 (Homo sapiens, UniProt P08684).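 Note: CYP3A4 tested as one member of a cytochrome P450 panel screen.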
Cytochrome P450 3A4, sequence (P08684 whole entry): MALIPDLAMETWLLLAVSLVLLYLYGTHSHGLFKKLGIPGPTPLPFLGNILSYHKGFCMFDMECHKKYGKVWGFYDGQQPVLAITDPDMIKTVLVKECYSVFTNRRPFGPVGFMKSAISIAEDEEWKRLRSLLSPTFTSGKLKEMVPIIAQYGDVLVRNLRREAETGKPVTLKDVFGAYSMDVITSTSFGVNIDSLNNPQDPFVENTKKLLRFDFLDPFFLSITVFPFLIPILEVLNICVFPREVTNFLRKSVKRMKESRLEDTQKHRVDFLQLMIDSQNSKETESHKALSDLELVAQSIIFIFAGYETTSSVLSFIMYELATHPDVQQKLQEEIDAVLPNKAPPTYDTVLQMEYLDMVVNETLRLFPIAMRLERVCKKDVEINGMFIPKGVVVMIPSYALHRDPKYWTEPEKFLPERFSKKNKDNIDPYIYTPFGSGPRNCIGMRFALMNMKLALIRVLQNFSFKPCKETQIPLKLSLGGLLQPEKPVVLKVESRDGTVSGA
Assay [5] addresses Cytochrome P450 2C9 (Homo sapiens, UniProt P11712).
Assay [6] has as its target T4, Heat shock factor protein 1 (Mus musculus, UniProt P38532).
T4 sequence (P38532 whole entry): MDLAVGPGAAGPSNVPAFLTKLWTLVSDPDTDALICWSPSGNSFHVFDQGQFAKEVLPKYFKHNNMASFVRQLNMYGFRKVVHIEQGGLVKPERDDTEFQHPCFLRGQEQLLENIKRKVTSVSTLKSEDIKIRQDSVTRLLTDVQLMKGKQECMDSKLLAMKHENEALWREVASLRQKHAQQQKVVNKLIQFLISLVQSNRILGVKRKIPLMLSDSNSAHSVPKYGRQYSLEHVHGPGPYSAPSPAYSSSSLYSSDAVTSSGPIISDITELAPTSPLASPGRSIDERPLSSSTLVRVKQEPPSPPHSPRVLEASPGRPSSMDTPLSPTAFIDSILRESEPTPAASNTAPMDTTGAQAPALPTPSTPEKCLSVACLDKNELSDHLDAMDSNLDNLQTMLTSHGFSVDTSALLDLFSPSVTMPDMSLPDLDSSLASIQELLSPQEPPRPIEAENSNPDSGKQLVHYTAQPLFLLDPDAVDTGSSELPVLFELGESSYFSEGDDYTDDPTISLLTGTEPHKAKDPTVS
The experiment in a line: inhibition of MG132-induced HSE-luciferase signal, confirmation, cell-based, NIH3T3, luminescence, dose retest (AID 2382).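 Note: NIH3T3 fibroblasts with HSF1-driven luciferase reporter stressed by proteasome inhibitor MG132; luminescence from HSF1-driven luciferase expression after 8 hours of MG132 stress.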 Type of assay: functional.

For assay [7], the target named is T5, Corticotropin-releasing factor receptor 2/Corticotropin-releasing factor-binding protein (Homo sapiens, UniProt P24387+Q13324).
T5 sequence (Q13324 whole entry): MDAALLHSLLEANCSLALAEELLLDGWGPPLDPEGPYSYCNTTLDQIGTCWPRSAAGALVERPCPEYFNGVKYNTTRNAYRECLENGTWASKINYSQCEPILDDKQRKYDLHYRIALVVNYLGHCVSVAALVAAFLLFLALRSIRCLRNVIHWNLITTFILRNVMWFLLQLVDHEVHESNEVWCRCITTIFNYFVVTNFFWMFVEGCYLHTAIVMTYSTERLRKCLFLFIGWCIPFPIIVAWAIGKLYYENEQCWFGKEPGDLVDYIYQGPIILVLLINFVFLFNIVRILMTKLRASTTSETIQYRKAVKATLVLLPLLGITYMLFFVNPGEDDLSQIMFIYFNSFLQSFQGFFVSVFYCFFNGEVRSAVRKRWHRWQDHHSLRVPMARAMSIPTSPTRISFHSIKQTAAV
T5 sequence (P24387 whole entry): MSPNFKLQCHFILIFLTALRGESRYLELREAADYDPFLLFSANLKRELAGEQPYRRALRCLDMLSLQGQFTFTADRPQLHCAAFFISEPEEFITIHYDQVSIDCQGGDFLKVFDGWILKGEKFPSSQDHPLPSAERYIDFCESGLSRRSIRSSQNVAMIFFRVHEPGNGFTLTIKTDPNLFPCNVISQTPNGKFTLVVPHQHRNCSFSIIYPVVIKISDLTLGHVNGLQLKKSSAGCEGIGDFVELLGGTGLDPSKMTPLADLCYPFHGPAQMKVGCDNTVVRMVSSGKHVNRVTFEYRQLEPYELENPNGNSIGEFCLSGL
The assay can be described thus: activators of CRF receptor 2 with binding protein – uHTS hits, confirmation (AID 602473). Type of assay: functional. The conditions noted are these: read-out: EC50_Mean.

The target in assay [8] is Cytochrome P450 2C19 (Homo sapiens, UniProt P33261). The experiment in a line: Cytochrome panel assay with activity outcomes. Panel member name: p450-cyp2c19 Compounds with AC50 equal or less than 10 uM are considered active. The conditions noted are these: read-out: AC50. It is filed as functional.
Cytochrome P450 2C19, sequence (P33261 whole entry): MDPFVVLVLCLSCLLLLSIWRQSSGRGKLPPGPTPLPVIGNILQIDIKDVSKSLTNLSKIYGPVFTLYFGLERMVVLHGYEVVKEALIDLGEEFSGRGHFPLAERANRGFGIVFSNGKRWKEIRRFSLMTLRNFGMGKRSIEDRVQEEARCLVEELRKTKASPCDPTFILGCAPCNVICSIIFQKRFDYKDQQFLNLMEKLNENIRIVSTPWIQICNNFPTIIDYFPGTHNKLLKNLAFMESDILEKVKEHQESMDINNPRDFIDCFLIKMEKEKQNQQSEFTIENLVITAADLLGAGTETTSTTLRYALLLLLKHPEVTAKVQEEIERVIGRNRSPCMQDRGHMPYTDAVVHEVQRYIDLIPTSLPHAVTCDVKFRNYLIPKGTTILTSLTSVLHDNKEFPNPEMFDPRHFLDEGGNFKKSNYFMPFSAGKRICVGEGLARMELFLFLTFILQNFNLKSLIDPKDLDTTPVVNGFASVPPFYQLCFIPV

Cytochrome P450 2C9, sequence (P11712 whole entry): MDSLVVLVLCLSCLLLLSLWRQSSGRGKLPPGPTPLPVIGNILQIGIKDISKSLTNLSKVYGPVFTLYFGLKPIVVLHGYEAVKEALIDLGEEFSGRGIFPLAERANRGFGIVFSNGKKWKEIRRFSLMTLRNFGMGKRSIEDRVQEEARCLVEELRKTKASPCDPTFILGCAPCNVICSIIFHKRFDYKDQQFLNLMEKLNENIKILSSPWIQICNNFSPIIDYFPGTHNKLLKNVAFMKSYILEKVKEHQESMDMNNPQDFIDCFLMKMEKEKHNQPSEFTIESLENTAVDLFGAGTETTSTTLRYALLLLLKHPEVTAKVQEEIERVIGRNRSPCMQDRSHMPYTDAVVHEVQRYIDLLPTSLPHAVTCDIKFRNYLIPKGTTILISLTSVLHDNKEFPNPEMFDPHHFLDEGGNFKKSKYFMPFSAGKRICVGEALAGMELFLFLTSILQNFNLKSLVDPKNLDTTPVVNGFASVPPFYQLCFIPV

Regarding `CCCc1n[nH]c2c1C(c1c[nH]nc1-c1ccc(F)cc1)C(C#N)=C(N)O2` (configuration not stated), the half-maximal activity concentration (AC50) in assay [1] is 2.08 µM (active). In assay [2], the EC50 is 1.54 µM (active).
As to `COc1ccc(CN2CCN(CCCCOc3ccc(Cl)cc3)CC2)c(OC)c1OC`, the IC50 in assay [3] was 71.4 µM (active).
On to `Cc1cc(-c2[nH]nc3c2C(c2ccsc2)C(C#N)=C(N)O3)c(C)s1` (configuration not stated), for which, in assay [1], the half-maximal activity concentration (AC50) is 3.47 µM (active). Moreover, the EC50 in assay [2] was 1.2 µM (active).
Consider `CCN(CC(=O)NCc1ccc(F)cc1)C(=O)CN1CCN(c2ccc(OC)cc2)CC1`, for which the half-maximal inhibitory concentration (IC50) in assay [3] is 42.3 µM (active).
Consider `CC1CN(CCCCN2C(=O)c3ccccc3C2=O)CC(C)O1` (configuration not stated), for which, in assay [3], the IC50 was 125 µM (active).
For `O=c1c2ccccc2nc2n1C(CSc1ccc(F)cc1)CN2` (configuration not stated), the AC50 in assay [4] was 31.6 µM (inconclusive); in assay [5], 39.8 µM (inconclusive).
With `CN1C(C(=O)Nc2ccc(OC(F)(F)F)cc2)=CC(c2cccs2)=NS1(=O)=O`, the EC50 in assay [6] is 62.2 µM (active).
For `Cc1cccc(NC(=O)C2CC2c2ccccc2)c1C` (configuration not stated), the EC50 in assay [7] was > 53 µM (inactive).
Take `COc1ccc(NC(=O)CN(C)S(=O)(=O)c2ccc(Cl)cc2)c([N+](=O)[O-])c1`: the AC50 in assay [4] is 1.78 µM (inconclusive).
Turning to `Cc1ccc(-c2noc(-c3cc4ccccc4oc3=O)n2)cc1`, the values for the AC50 in assay [4] and in assay [5] were 3.55 µM (inconclusive) and 6.31 µM (inconclusive), respectively.
As for `CCC(=O)n1nc(-c2cccnc2)nc1NCc1cccs1`, in assay [6], the EC50 is given as > 195 µM (not active).
Turning to `COc1ccc(/C=C2/CC/C(=C\c3ccc(OC)c(OC)c3OC)C2=O)c(OC)c1OC`, the EC50 in assay [7] is > 53 µM (inactive).
Take `c1ccc(-c2ccccc2OCCN2CCOCC2)cc1`: the IC50 in assay [3] was 111 µM (active).
In the case of `O=C(Oc1ccccc1)N1CCC[C@@]2(CCN(c3ncccn3)C2)C1`, the concentration at half-maximal activity (AC50) in assay [4] was 15.8 µM (inconclusive).
`Cc1[nH]c2ccccc2c1/C=C/c1nc2ccccc2c(=O)n1-c1cccc([N+](=O)[O-])c1`: the EC50 in assay [6] is > 195 µM (not active).
As for `OCCN1CCN(C(S)=Nc2cccc(C(F)(F)F)c2)CC1`, the half-maximal inhibitory concentration (IC50) in assay [3] was 126 µM (active).
Turning to `CCCCC/C=C\C[C@H](O)/C=C\c1cccc(C[C@H](O)CCCCO)n1`, the concentration at half-maximal activity (AC50) in assay [4] was 6.31 µM (inconclusive); in assay [5] it was 20 µM (inconclusive).
`COc1ccc(NC(=O)C23CC4CC(C2)CC(n2cnc(Br)n2)(C4)C3)c(C)c1`: the half-maximal activity concentration (AC50) in assay [4] is 14.1 µM (inconclusive).
Consider `COC(=O)c1ccc(CNC(=O)COC(=O)/C=C/c2ccc(O)c(OC)c2)cc1`, for which the IC50 in assay [3] is 44.4 µM (active).
On the same count and under the same terms, to `COc1cc(/C=C/C(=O)OCC(=O)N2CCCc3ccccc32)ccc1O` belongs 36.1 µM (active).
On to `O=C(NC(C(=O)c1ccccc1)n1cnccc1=O)c1ccccc1` (configuration not stated), for which the AC50 was 2.82 µM (inconclusive) in assay [8], 14.1 µM (inconclusive) in assay [4] and 8.91 µM (inconclusive) in assay [5].
`CC(Sc1nnc(Cc2cccs2)n1C1CCCCC1)C(N)=O` (configuration not stated): in assay [4], the AC50 is 3.98 µM (inconclusive).
Turning to `CCCCCCCCc1c(O)nc(-n2[nH]c(C)c(CCO)c2=O)[nH]c1=O`, the concentration at half-maximal activity (AC50) in assay [1] was 47.4 µM (active). In assay [2], the EC50 was 96.8 µM (active).
The corresponding values for `Cc1cc(=O)n(CCCc2ccccc2)[nH]1` are 2.4 µM (active) and 2.23 µM (active).
Take `CC1(C)OC(=O)C(/C=N/c2cccc(O)c2)=C(O)O1`: the AC50 in assay [4] is 31.6 µM (inconclusive).
`Cc1nc2ccccc2nc1N/N=C/c1ccc(O)cc1`: the 50% inhibitory concentration (IC50) in assay [3] is 29.2 µM (active).
As to `COc1cc2oc(-c3ccc(O)cc3)cc(=O)c2c(OC)c1O`, the IC50 in assay [3] is 18.2 µM (active).
With `CC(=O)Oc1ccc2c(c1)CC[C@@H]1[C@@H]2CC[C@]2(C)[C@@H](O)CC[C@@H]12` [ESTRADIOL ACETATE], the EC50 in assay [6] was > 195 µM (not active).

Broadly, the AC50 is the concentration giving half of the maximal activity seen. In general, IC50 refers to the midpoint of a concentration-inhibition curve.

The values above are taken from ChEMBL document CHEMBL1201862, “PubChem BioAssay data set” (2004).
